# Values quoted from earlier work as cited in patent publication US11910793B2, “Multifunctional agricultural adjuvant compositions” (WINFIELD SOLUTIONS, LLC, priority 2019, dated 2024).
# Settings: water at 0° C.
compound,measurement,value
"N.N.O=S(=O)(O)O [AMS, ammonium sulfate]",amount of AMS dissolvable in water,41 wt. %
